According to patent US20210161997A1, “TREATING DISEASES VIA TARGETED MODULATION OF GENE SIGNALING NETWORKS” (Camp4 Therapeutics Corporation, priority 2018, published 2021):

Columns and labels:
Type in all cases: cell-based
[1] = test system: ANGPTL3; assay: RNA-seq of ANGPTL3 expression in compound-treated primary human hepatocytes; details: primary human hepatocytes (Table 12)
In short: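 Cryopreserved primary human hepatocytes from three donors, plated at 375,000 cells/well, switched to complete or modified maintenance medium, then dosed with compound (stocks at 1000× final) for about 18 h. Poly(A) mRNA was sequenced directionally, mapped to GRCh38 with STAR, and gene-level abundance (counts, FPKM) estimated with RSEM against GENCODE 24.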

[2] = test system: LDLR; assay: RNA-seq of LDLR expression in compound-treated primary human hepatocytes
Experimental: (§1) Human hepatocytes were obtained from two donors from Massachusetts General Hospital, namely MGH54 and MGH63, and one donor from Lonza, namely HUM4111B. Cryopreserved hepatocytes were cultured in plating media for 16 hours, transferred to maintenance media for 4 hours. Cultured on serum-free media for 2 hours, then a compound was added. The hepatocytes were maintained on the serum-free media for 16 hours prior to gene expression analysis. Primary human hepatocytes were stored in the vapor phase of a liquid nitrogen freezer (about −130° C.).
(§2) Human hepatocytes cultured as described above were plated in 24-well format, adding 375,000 cells per well in a volume of 500 ul plating medium. Four hours before treatment, cells were washed with PBS and the medium was changed to either: fresh maintenance medium (complete) or modified maintenance medium.
(§3) Compound stocks were prepared at 1000× final concentration and added in a 2-step dilution to the medium to reduce risk of a compound precipitating out of solution when added to the cells, and to ensure reasonable pipetting volumes. One at a time, each compound was first diluted 10-fold in warm (about 37° C.) modified maintenance medium (initial dilution=ID), mixed by vortexing, and the ID was diluted 100-fold into the cell culture (e.g. 5.1 ul into 1 well of a 24-well plate containing 0.5 mL medium). The plate was mixed by carefully swirling and after all wells were treated and returned to the incubator overnight. If desired, separate plates/wells were treated with vehicle-only controls and/or positive controls. If using multi-well plates, controls were included on each plate. After about 18 hours, cells were harvested for further analysis, e.g., ChIP-seq, RNA-seq, ATAC-seq, etc.
(§4) This protocol is a modified version of the following protocols: MagMAX mirVana Total RNA Isolation Kit User Guide (Applied Biosystems #MAN0011131 Rev B.0), NEBNext Poly(A) mRNA Magnetic Isolation Module (E7490), and NEBNext Ultra Directional RNA Library Prep Kit for Illumina (E7420) (New England Biosystems #E74901).
(§5) The MagMAX mirVana kit instructions (the section titled “Isolate RNA from cells” on pages 14-17) were used for isolation of total RNA from cells in culture. Two hundred μl of Lysis Binding Mix was used per well of the multiwell plate containing adherent cells (usually a 24-well plate).
(§6) For mRNA isolation and library prep, the NEBNext Poly(A) mRNA Magnetic Isolation Module and Directional Prep kit was used. RNA isolated from cells above was quantified, and prepared in […] of each sample in 50 μl of nuclease-free water. This protocol may be run in microfuge tubes or in a 96-well plate.
(§7) All pass filter reads from each sample were mapped against the human genome (assembly GRCh38/GCA_000001405.15 “no alt” analysis set merged with hs38d1/GCA_000786075.2) using two pass mapping via STAR version 2.5.3a (alignment parameters alignIntronMin=20; alignIntronMax=1000000; outFilterMismatchNmax=999; outFilterMismatchNoverLmax=0.05; outFilterType=BySJout; outFilterMultimapNmax=20; alignSJoverhangMin=8; alignSJDBoverhangMin=1; alignMatesGapMax=1000000) (Dobin et al., Bioinformatics (2012) 29(1):15-21). Genomic alignments were converted to transcriptome alignments based on reference transcript annotations from the Human GENCODE Gene Set release 24 (Harrow et al., Genome Res. (2012) 22(9): 1760-1774). Using unique and multimapped transcriptomic alignments, gene-level abundance estimates were computed using RSEM version 1.3.0 (Li and Dewey, BMC Bioinformatics (2011) 12:323) in a strand-aware manner, and including confidence interval sampling calculations, to arrive at posterior mean estimates (PME) of abundances (counts and normalized FPKM—fragments per kilobase of exon per million mapped fragments) from the underlying Bayesian model. Standard QC were applied (read integrity, mapping statistics, library complexity, fragment bias) to remove unsatisfactory samples.

[3] = test system: PCSK9; assay: RNA-seq of PCSK9 expression in compound-treated primary human hepatocytes
Experimental: as §1, §2, §3, §4, §5, §6, §7

[4] = test system: SERPINC1; assay: RNA-seq of SERPINC1 expression in compound-treated primary human hepatocytes; details: significance FPKM ≥1, log 2(fold change) ≥0.5, q-value ≤0.05
Experimental: Human hepatocytes were obtained from two donors from Massachusetts General Hospital, namely MGH54 and MGH63, and one donor from Lonza, namely HUM4111B. Cryopreserved hepatocytes were cultured in plating media for 16 hours, transferred to maintenance media for 4 hours. Cultured on serum-free media for 2 hours, then a compound was added. The hepatocytes were maintained on the serum-free media for 16 hours prior to gene expression analysis. Primary human hepatocytes were stored in the vapor phase of a liquid nitrogen freezer (about -130° C.). Human hepatocytes cultured as described above were plated in 24-well format, adding 375,000 cells per well in a volume of 500 ul plating medium. Four hours before treatment, cells were washed with PBS and the medium was changed to either: fresh maintenance medium (complete) or modified maintenance medium. Compound stocks were prepared at 1000× final concentration and added in a 2-step dilution to the medium to reduce risk of a compound precipitating out of solution when added to the cells, and to ensure reasonable pipetting volumes. […] The plate was mixed by carefully swirling and after all wells were treated and returned to the incubator overnight. If desired, separate plates/wells were treated with vehicle-only controls and/or positive controls. If using multi-well plates, controls were included on each plate. After about 18 hours, cells were harvested for further analysis, e.g., ChIP-seq, RNA-seq, ATAC-seq, etc. This protocol is a modified version of the following protocols: MagMAX mirVana Total RNA Isolation Kit User Guide (Applied Biosystems #MAN0011131 Rev B.0), NEBNext Poly(A) mRNA Magnetic Isolation Module ([…]), and NEBNext Ultra Directional RNA Library Prep Kit for Illumina ([…]) (New England Biosystems #E74901). […] Two hundred μl of Lysis Binding Mix was used per well of the multiwell plate containing adherent cells (usually a 24-well plate). For mRNA isolation and library prep, the NEBNext Poly(A) mRNA Magnetic Isolation Module and Directional Prep kit was used. RNA isolated from cells above was quantified, and prepared in […] of each sample in 50 μl of nuclease-free water. This protocol may be run in microfuge tubes or in a 96-well plate. […] Genomic alignments were converted to transcriptome alignments based on reference transcript annotations from the Human GENCODE Gene Set release 24 (Harrow et al., Genome Res. […] Using unique and multimapped transcriptomic alignments, gene-level abundance estimates were computed using RSEM version 1.3.0 (Li and Dewey, BMC Bioinformatics (2011) 12:323) in a strand-aware manner, and including confidence interval sampling calculations, to arrive at posterior mean estimates (PME) of abundances (counts and normalized FPKM-fragments per kilobase of exon per million mapped fragments) from the underlying Bayesian model. Standard QC were applied (read integrity, mapping statistics, library complexity, fragment bias) to remove unsatisfactory samples. Differential gene expression was computed using the negative binomial model implemented by DESeq2 version 1.16.1 (Love et al., Genome Biol. (2014) 15(12):550). […] RNA-seq signals were also normalized by read depth and visualized using the UCSC browser. To identify small molecules that modulate target gene expression, primary human hepatocytes were prepared as a monoculture, and at least one small molecule compound was applied to the cells. RNA-seq was performed to determine the effects of the compounds on the expression of the target genes in hepatocytes. Fold change was calculated by dividing the level of expression in the cell system that had been perturbed by the level of expression in an unperturbed system.

[5] = test system: SLC37A4; assay: RNA-seq of SLC37A4 expression in compound-treated primary human hepatocytes
Experimental: as §1, §2, §3, §4, §5, §6, §7

[6] = test system: UGT1A1; assay: RNA-seq of UGT1A1 expression in compound-treated primary human hepatocytes
In short: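 Cryopreserved primary human hepatocytes from three donors were plated in 24-well format, then treated with compound diluted from 1000× stocks in serum-free maintenance medium for about 16–18 h. Poly(A) RNA-seq log2 fold change was computed against vehicle/pan-experiment controls. Significance required FPKM ≥1, log2FC ≥0.5 and q ≤0.05.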

[7] = test system: JAG1; assay: RNA-seq of JAG1 expression in compound-treated primary human hepatocytes
Experimental: (§8) Human hepatocytes were obtained from two donors from Massachusetts General Hospital, namely MGH54 and MGH63, and one donor from Lonza, namely HUM4111B. Cryopreserved hepatocytes were cultured in plating media for 16 hours, transferred to maintenance media for 4 hours. Cultured on serum-free media for 2 hours, then a compound was added. The hepatocytes were maintained on the serum-free media for 16 hours prior to gene expression analysis. Primary human hepatocytes were stored in the vapor phase of a liquid nitrogen freezer (about -130° C.). Human hepatocytes cultured as described above were plated in 24-well format, adding 375,000 cells per well in a volume of 500 ul plating medium. Four hours before treatment, cells were washed with PBS and the medium was changed to either: fresh maintenance medium (complete) or modified maintenance medium. Compound stocks were prepared at 1000× final concentration and added in a 2-step dilution to the medium to reduce risk of a compound precipitating out of solution when added to the cells, and to ensure reasonable pipetting volumes. […] The plate was mixed by carefully swirling and after all wells were treated and returned to the incubator overnight. If desired, separate plates/wells were treated with vehicle-only controls and/or positive controls. If using multi-well plates, controls were included on each plate. After about 18 hours, cells were harvested for further analysis, e.g., ChIP-seq, RNA-seq, ATAC-seq, etc. This protocol is a modified version of the following protocols: MagMAX mirVana Total RNA Isolation Kit User Guide (Applied Biosystems #MAN0011131 Rev B.0), NEBNext Poly(A) mRNA Magnetic Isolation Module ([…]), and NEBNext Ultra Directional RNA Library Prep Kit for Illumina ([…]) (New England Biosystems #E74901). […] Two hundred μl of Lysis Binding Mix was used per well of the multiwell plate containing adherent cells (usually a 24-well plate). For mRNA isolation and library prep, the NEBNext Poly(A) mRNA Magnetic Isolation Module and Directional Prep kit was used. RNA isolated from cells above was quantified, and prepared in […] of each sample in 50 μl of nuclease-free water. This protocol may be run in microfuge tubes or in a 96-well plate. […] Genomic alignments were converted to transcriptome alignments based on reference transcript annotations from the Human GENCODE Gene Set release 24 (Harrow et al., Genome Res. […] Standard QC were applied (read integrity, mapping statistics, library complexity, fragment bias) to remove unsatisfactory samples. Differential gene expression was computed using the negative binomial model implemented by DESeq2 version 1.16.1 (Love et al., Genome Biol. (2014) 15(12):550). […] RNA-seq signals were also normalized by read depth and visualized using the UCSC browser. To identify small molecules that modulate target gene expression, primary human hepatocytes were prepared as a monoculture, and at least one small molecule compound was applied to the cells. RNA-seq was performed to determine the effects of the compounds on the expression of the target genes in hepatocytes. Fold change was calculated by dividing the level of expression in the cell system that had been perturbed by the level of expression in an unperturbed system.

[8] = test system: NOTCH2; assay: RNA-seq of NOTCH2 expression in compound-treated primary human hepatocytes; details: primary human hepatocytes
Experimental: as §8

C=CC(=O)Nc1cccc(Nc2nc(Nc3ccc(N4CCN(C(C)=O)CC4)cc3OC)ncc2C(F)(F)F)c1 [CO-1686 (Rociletinib), Rociletinib]
ANGPTL3 Fold Change (Log2) [1]: −0.67 Log2
LDLR Fold Change (Log2) [2]: 0.51 Log2
PCSK9 Fold Change (Log2) [3]: 0 Log2

COCCOc1ccc2c(c1)ncn2-c1ccc2cccc(N3CCC(N)CC3)c2n1 [CP-673451]
SERPINC1 Fold Change (Log2) [4]: 2.53 Log2
SLC37A4 Fold Change (Log2) [5]: 1.17 Log2
UGT1A1 Fold Change (Log2) [6]: 1.82 Log2

CS[C@H]1SC[C@H]2C(=O)N(C)[C@@H](C(C)C)C(=O)OC[C@@H](NC(=O)c3cnc4ccccc4n3)C(=O)N[C@@H](C)C(=O)N(C)[C@@H]1C(=O)N(C)[C@@H](C(C)C)C(=O)OC[C@@H](NC(=O)c1cnc3ccccc3n1)C(=O)N[C@@H](C)C(=O)N2C [Echinomycin]
SERPINC1 Fold Change (Log2) [4]: 2.29 Log2
SLC37A4 Fold Change (Log2) [5]: 1.59 Log2
UGT1A1 Fold Change (Log2) [6]: 1.10 Log2

COc1cccc2c1C(=O)c1c(O)c3c(c(O)c1C2=O)C[C@@](O)(/C(CO)=N/NC(=O)CCCCCN1C(=O)C=CC1=O)C[C@@H]3O[C@H]1C[C@H](N)[C@H](O)[C@H](C)O1 [INNO-206 (aldoxorubicin), aldoxorubicin]
SERPINC1 Fold Change (Log2) [4]: 1.00 Log2
JAG1 Fold Change (Log2) ([7]; primary human hepatocytes): 0.84 Log2
Significant modulation of JAG1 (in words) ([7]; summary of Table 6): significantly modulate only JAG1
NOTCH2 Fold Change (Log2) [8]: 0 Log2

O=c1cc(N2CCOCC2)oc2c(-c3ccccc3)cccc12 [LY294002]
UGT1A1 Fold Change (Log2) [6]: 1.36 Log2
ANGPTL3 Fold Change (Log2) [1]: 0 Log2
LDLR Fold Change (Log2) [2]: 0.48 Log2
PCSK9 Fold Change (Log2) [3]: −0.51 Log2

NS(=O)(=O)C#Cc1ccccc1 [Pifithrin-u, Pifithrin-μ]
SERPINC1 Fold Change (Log2) [4]: 0.79 Log2
ANGPTL3 Fold Change (Log2) [1]: −0.46 Log2
LDLR Fold Change (Log2) [2]: 0.60 Log2
PCSK9 Fold Change (Log2) [3]: −0.54 Log2

COCCOc1ccc(N2CCN(CCn3ncc4c3nc(N)n3nc(-c5ccco5)nc43)CC2)cc1 [Preladenant]
ANGPTL3 Fold Change (Log2) [1]: −0.73 Log2
LDLR Fold Change (Log2) [2]: 1.07 Log2
PCSK9 Fold Change (Log2) [3]: 0 Log2

CN1CCC(CNc2ccc3ncc(-c4cccc(OC(F)(F)F)c4)n3n2)CC1 [SGI-1776]
ANGPTL3 Fold Change (Log2) [1]: −0.52 Log2
LDLR Fold Change (Log2) [2]: 0.48 Log2
PCSK9 Fold Change (Log2) [3]: 0 Log2

CNC(=O)Nc1ccc(-c2nc(N3CC4CCC(C3)O4)c3cnn(C4CCC5(CC4)OCCO5)c3n2)cc1 [WYE-125132 (WYE-132)]
ANGPTL3 Fold Change (Log2) [1]: −0.42 Log2
LDLR Fold Change (Log2) [2]: 1.46 Log2
PCSK9 Fold Change (Log2) [3]: −0.91 Log2
